Experimental data reported in patent US4867737A, “Derivatives of 4-phenyl-4-oxo-2-butenoic acid their preparation process, their use as medicaments and compositions containing them” (Roussel UCLAF, priority 1986, dated 1989).

Tests used:
[1] = test system: total acidity of the gastric secretions; assay: Anti-gastric secretory activity (pylorus ligature, Shay technique); assay type: in vivo, rat; conditions: male rats, intraduodenal, 10 mg/kg, 3 hours
Protocol: (1) Determination of the anti-gastric secretory activity.
The technique used is described by H. SHAY et al in Gastroenterology 5, 43, 1945.
Male rats are used weighing about 200 g (10 animals per group), deprived of nourishment for 48 hours, but having as much as desired of an 8% glucose solution. The pylorus of the rats is ligatured, the rats having been lightly anesthetized with ether. Then, at the end of the operation, the compounds under test are administered at various doses, or for the control animals, a 0.5% carboxymethyl cellulose solution is administered by intraduodenal route. Then the abdominal incision is sutured.
Three hours later, the animals are killed and their stomachs are removed after ligature of the oesophagus. The gastric juice is removed and centrifuged. Then the volume is measured; and on 100 μl of gastric juice, the total acidity is determined by titration at pH 7 with N/10 sodium hydroxide.
The percentages of variation of total acidity of the gastric secretions are calculated in relation to the results obtained with the control animals.

[2] = Acute toxicity (LD50), oral route; conditions: in vivo, mouse
Protocol: (3) Determination of actute toxicity
The lethal dose 50 (LD50) was evaluated after administration of the products by oral route to a mouse.

[3] = test system: ulcers in the stomachs of the rats; assay: Anti-ulcer activity, ulcer from stress (constraint and cold); assay type: in vivo, rat; conditions: female rats, by probang, 10 mg/kg
Protocol: (2) Determination of anti-ulcer activity
The technique consists of inducing ulcers in the stomachs of the rats through stress (constraint and cold.)
The technique used is described by E. C. SENAY and R. J. LEVINE, Proc. Soc. Exp. Biol. 124, 1221 (1967).
Female rats weighing 150 g are used (5 animals per group), starved for 48 hours with water "ad libitum" and glucose solution for 8 hours. The animals receive the product under test by a probang, or the control animals receive a 0.5% carboxymethyl cellulose solution.
Two hours later, the animals are wrapped up in a wire-netting jacket, their paws are bound and the whole is placed in a refrigerator at 8° C. for two hours. The rats are freed and killed with ether.
Their stomachs are removed, opened along the greater curvature and examined by means of a binocular magnifier; the seriousness of the lesions is rated from 0 to 3 for each stomach.
For each group of rats the average intensity of the ulcerations is calculated, then for each group the degree of ulceration in relation to the controls is determined.
Product 1 is the product of Example 1; Product p is the product of Example 1 of U.S. Pat. No. 4,473,583.

Compound | Anti-secretory activity: Acid Concentration (% variation in relation to the controls) [1] [%] | LD50 [2] [mg/kg] | Anti-ulcer activity: Ulceration (% variation in relation to the controls) [3] [%]
O=C(O)C=CC(=O)c1ccccc1 [p] | -66 | 250 | -54
COc1ccccc1C(=O)/C=C/C(=O)O [Product 1, (E) 4-(2-methoxyphenyl)-4-oxo-2-butenoic acid] | -78 | 370 | -80
